Measurements published in publication PMC8887546, “Design and Synthesis of Brain Penetrant Glycopeptide Analogues of PACAP With Neuroprotective Potential for Traumatic Brain Injury and Parkinsonism” (Frontiers in drug discovery, 2022).

Legend:
[1] = test system: Sprague Dawley rats, 6-OHDA lesion; assay: Microglia morphology in substantia nigra, IBA1 skeleton analysis (study 2); assay type: in vivo, rat; conditions: more severe (40%) lesion, treatment vs vehicle, n = 7
Experimental: Rats were treated with 2LS98Lac or saline (vehicle) as outlined in the Schemes in Figures 9A,B via intraperitoneal (i.p.) injection (15 mg/kg). All animals were made hemi-parkinsonian with unilateral, striatal 6-hydroxydopamine (Sigma Aldrich, St. Louis, MO) injections. After surgery, behavioral assessments were done at 2- and 4-weeks post-surgery. 24 h after the last test animals were either euthanized and whole brains were harvested for future biochemical analysis or perfused and brains collected for immunohistochemistry and stereological assessment of tyrosine hydroxylase-positive (TH+) cells remaining in the SNc. In study 1: n = 16 each group were included, and all underwent the behavioral analysis: n = 16, and for the stereology in the SNc, n = 8 each group was used. In study 2: n = 23 each group were included. […] In the 2LS98Lac group, one video at 4 weeks was lost, reducing n = 22 in this specific analysis, and for the stereology, 2 brains were damaged during processing and could not be included in the stereology of the SNc, therefore […]. For biochemical subanalyses, n = 8 each group. For the microglial morphology subanalysis n = 7 each group.
Three coronal brain sections that contained the substantia nigra (SN) were randomly chosen for each animal. For immunofluorescence of microglia free-floating brain sections were first blocked in 10% horse serum (Vector Laboratories, S-2000–20, Burlingame, CA) and buffer solution (0.01 M PBS, 0.05% Triton, and 0.04% NaN3) for 1 h followed by a 72 h incubation with primary antibodies as appropriate: rabbit anti-IBA1 at 1:1,000 (Wako, 019–19741, Madison, WI), mouse anti-TH at 1:2000 (R& D Systems, MAB7566, Minneapolis, MN). […] All incubation steps were performed at room temperature; washes between incubations were with 0.01 M PBS for 15 min. Vectashield (Vector Laboratories, H-1000) was used to coverslip mounted tissue.
Images were acquired on a confocal microscope (Zeiss NLO 880, San Diego, CA) in 3 fields of view within the SN of each intact and lesioned hemisphere using a ×40 objective (473.33 × 473.33 μm area). […] Threshold parameters were consistent for all images, and the percent area of IBA1 immunofluorescence was measured for each image. The number of cell somas was counted in the IBA1 channel, an approximation of the number of cells imaged in each frame, and all percent area data was divided by this cell count.
Ramified microglial morphology was quantified using an objective and computer-aided skeleton analysis method previously described in detail ([Young and Morrison, 2018]). […] Sampling averages were calculated for each animal within each region (intact SN and lesion SN) prior to statistical analyses. […]

[2] = test system: C57BL/6 mice, diffuse TBI; assay: Rotarod after TBI; assay type: in vivo, mouse; conditions: 10 mg/kg i.p. 30 min prior to TBI, 2, 5 and 7 DPI
Experimental: 30 min prior to TBI or sham injury, mice were randomly assigned to a therapeutic group and received an intraperitoneal injection of 2LS80Mel (10 mg/kg) or sterile saline (0.25 ml). Groups were as follows: TBI-2LS80Mel n = 17; TBI-vehicle n = 17; sham n = 22 (vehicle n = 11, 2LS80Mel n = 11).
For injury induction 24 h post-surgery, mice were re-anesthetized with 5% isoflurane delivered for 3 min. The cap was removed from the injury-hub assembly and the dura was visually inspected through the hub to ensure it was intact with no debris. […] Injured mice were monitored for presence of a forearm fencing response and righting reflex times were recorded as indicators of injury severity ([Hosseini and Lifshitz, 2009]). […] After spontaneously righting, mice were placed in a heated recovery cage and monitored until they were ambulatory (approximately 5–15 min) before being returned to their piezoelectric sleep cage (see below). […]
Sensorimotor function was assessed using the Rotor-Rod system (San Diego Instruments) as we have previously published ([Rowe et al., 2018]). […] Following acclimation, mice were trained over three consecutive days prior to surgery/injury and the last training session was recorded as baseline. […]

SMILES	% area IBA-1/cell on the lesioned side [1]	Microglial branches/cell on the lesioned side [1]	Microglial endpoints/cell on the lesioned side [1]	Microglial process length/cell on the lesioned side [1]	Rotarod latency to fall [2]
[2H]C([2H])([2H])C([2H])(C([2H])([2H])[2H])[C@]([2H])(NC(=O)[C@H](C)NC(=O)[C@H](C)NC(=O)[C@H](CC(C)C)NC(=O)[C@H](Cc1ccc(O)cc1)NC(=O)[C@H](CCCCN)NC(=O)[C@H](CCCCN)NC(=O)[C@@]([2H])(NC(=O)[C@H](C)NC(=O)[C@H](CC(C)C)NC(=O)[C@H](CCC(N)=O)NC(=O)[C@H](CCCCN)NC(=O)[C@H](CCCNC(=N)N)NC(=O)[C@H](Cc1ccc(O)cc1)NC(=O)[C@H](CCCNC(=N)N)NC(=O)[C@H](CO)NC(=O)[C@H](Cc1ccc(O)cc1)NC(=O)[C@H](CO)NC(=O)[C@H](CC(=O)O)NC(=O)[C@@H](NC(=O)[C@H](Cc1ccccc1)NC(=O)[C@@H](NC(=O)CNC(=O)[C@H](CC(=O)O)NC(=O)[C@H](CO)NC(=O)[C@@H](N)Cc1c[nH]cn1)[C@@H](C)CC)[C@@H](C)O)C([2H])(C([2H])([2H])[2H])C([2H])([2H])[2H])C(=O)N[C@@H](CC(C)C)C(=O)N[C@@H](CO[C@@H]1O[C@H](CO)[C@@H](O[C@@H]2O[C@H](CO)[C@H](O)[C@H](O)[C@H]2O)[C@H](O)[C@H]1O)C(N)=O [Compound 2LS98Lac]	significant increase	significant increase	trend toward increase	significant increase	–
CC[C@H](C)[C@H](NC(=O)CNC(=O)[C@H](CC(=O)O)NC(=O)[C@H](CO)NC(=O)[C@@H](N)Cc1c[nH]cn1)C(=O)N[C@@H](Cc1ccccc1)C(=O)N[C@H](C(=O)N[C@@H](CC(=O)O)C(=O)N[C@@H](CO)C(=O)N[C@@H](Cc1ccc(O)cc1)C(=O)N[C@@H](CO)C(=O)N[C@@H](CCCNC(=N)N)C(=O)N[C@@H](Cc1ccc(O)cc1)C(=O)N[C@@H](CCCNC(=N)N)C(=O)N[C@@H](CCCCN)C(=O)N[C@@H](CCC(N)=O)C(=O)N[C@@H](CC(C)C)C(=O)N[C@@H](C)C(=O)N[C@H](C(=O)N[C@@H](CCCCN)C(=O)N[C@@H](CCCCN)C(=O)N[C@@H](Cc1ccc(O)cc1)C(=O)N[C@@H](CC(C)C)C(=O)N[C@@H](C)C(=O)N[C@@H](C)C(=O)N[C@H](C(=O)N[C@@H](CC(C)C)C(=O)N[C@@H](CO[C@@H]1O[C@H](CO[C@H]2O[C@H](CO)[C@H](O)[C@H](O)[C@H]2O)[C@@H](O)[C@H](O)[C@H]1O)C(N)=O)C(C)C)C(C)C)[C@@H](C)O [Compound 2LS80Mel]	–	–	–	–	comparable to uninjured shams at all time points post-injury
